Source: patent US20100331320A1, “CYCLIC INHIBITORS OF 11BETA-HYDROXYSTEROID DEHYDROGENASE 1” (Vitae Pharmaceuticals, Inc., priority 2009, published 2010)

How the values were obtained:
[1] = target: T1, 11β-HSD1 (Homo sapiens, UniProt P28845); assay: biochemical; conditions: read-out: Average % control inhibition at 100 nM
T1 construct: detecting cortisol generated from cortisterone by human liver microsomes
Experimental: Briefly, compounds were incubated for 1 hour at 37° C. in Tris buffer (20 mM tris, 5 mM EDTA, pH 6.0) containing NADPH (200 μM) and cortisone (80 nM). Cortisol generated in the reaction was then detected with a competitive immunoassay, involving two HTRF conjugates: cortisol linked to XL665 and anti-cortisol antibody labeled with Europium cryptate. The incubation period for detection reaction was typically 2 hours. […] The ratio of the two emission signals was then calculated (Em665*10000/Em615). […] Each assay also contained a calibration curve with cortisol to transform the fluorescent data into cortisol concentrations. Percent inhibition of each compound was determined relative to the carbenoxolone signal.

[2] = target: CYP3A4 (Homo sapiens, UniProt P08684); assay: Biological Test Example 6: CYP3A4 Inhibition ([N-methyl-14C]-Erythromycin N-demethylation); type: in vitro ADME; conditions: recombinant CYP3A4, probe [N-methyl-14C]-Erythromycin (50 μM)
[3] = Slurry experiment on stability of the crystalline form (water suspension, XRPD); type: physicochemical; conditions: for stability of the anhydrous state: during the measurement by XRPD (30 minutes); for polymorphic change after slurry in water: suspended in water for up to seven days, XRPD of the filtration residue
Experimental: In this study, a suspension of the monohydrate of Example 48 was suspended in water for up to seven days. After the treatment, the mixtures were filtered and an x-ray powder diffraction of the filtration residue was measured.
In this study, a suspension of the monohydrate of Example 75 was suspended in water for up to seven days. After the treatment, the mixtures were filtered and an x-ray powder diffraction of the filtration residue was measured.

T1 sequence (P28845 whole entry): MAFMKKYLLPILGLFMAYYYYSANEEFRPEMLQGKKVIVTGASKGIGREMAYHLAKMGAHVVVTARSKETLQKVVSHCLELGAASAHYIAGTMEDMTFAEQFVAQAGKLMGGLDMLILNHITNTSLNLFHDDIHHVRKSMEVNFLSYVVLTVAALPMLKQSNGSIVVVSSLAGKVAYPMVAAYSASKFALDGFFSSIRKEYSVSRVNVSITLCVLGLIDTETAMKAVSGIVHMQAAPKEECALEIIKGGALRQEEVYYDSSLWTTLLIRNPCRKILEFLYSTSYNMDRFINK
CYP3A4, sequence (P08684 whole entry): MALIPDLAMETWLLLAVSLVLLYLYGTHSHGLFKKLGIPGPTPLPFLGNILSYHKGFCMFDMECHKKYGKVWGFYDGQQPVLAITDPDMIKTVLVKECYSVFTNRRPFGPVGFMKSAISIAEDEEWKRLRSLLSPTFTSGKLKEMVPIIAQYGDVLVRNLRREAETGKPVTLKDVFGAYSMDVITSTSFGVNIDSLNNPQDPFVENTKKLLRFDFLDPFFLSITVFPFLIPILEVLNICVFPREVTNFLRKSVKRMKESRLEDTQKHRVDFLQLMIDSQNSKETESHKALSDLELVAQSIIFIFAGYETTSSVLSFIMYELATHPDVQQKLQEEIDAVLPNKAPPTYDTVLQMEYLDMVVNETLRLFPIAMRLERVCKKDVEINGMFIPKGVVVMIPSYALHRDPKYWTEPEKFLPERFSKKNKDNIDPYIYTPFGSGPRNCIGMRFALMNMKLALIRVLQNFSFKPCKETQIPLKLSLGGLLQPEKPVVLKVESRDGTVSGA

SMILES | percent inhibition at 0.1 µM [1] | further results
C[C@@H](c1ccc(-c2cc(=O)n(C)cc2F)cc1)N1CC[C@](CC(C)(C)O)(c2ccccc2)OC1=O [Example 79, 3-{(S)-1-[4-(5-Fluoro-1-methyl-2-oxo-1,2-dihydro-pyridin-4-yl)-phenyl]-ethyl}-(S)-6-(2-hydroxy-2-methyl-propyl)-6-phenyl-[1,3]oxazinan-2-one] | 15% | 
C[C@@H](c1ccc(-c2ccn(CC(C)(C)O)c(=O)c2)cc1)N1CC[C@](CC(C)(C)O)(c2ccccc2)OC1=O [Example 80, (S)-6-(2-Hydroxy-2-methyl-propyl)-3-((S)-1-{4-[1-(2-hydroxy-2-methyl-propyl)-2-oxo-1,2-dihydro-pyridin-4-yl]-phenyl}-ethyl)-6-phenyl-[1,3]oxazinan-2-one] | 37% | 
COCC(C)Cn1ccc(-c2ccc([C@H](C)N3CC[C@](CC(C)(C)O)(c4ccccc4)OC3=O)cc2)cc1=O (stereo partly drawn) [Example 81, (S)-6-(2-Hydroxy-2-methyl-propyl)-3-((S)-1-{4-[1-(3-methoxy-2-methyl-propyl)-2-oxo-1,2-dihydro-pyridin-4-yl]-phenyl}-ethyl)-6-phenyl-[1,3]oxazinan-2-one] | 11% | 
CC(CO)Cn1ccc(-c2ccc([C@H](C)N3CC[C@](CC(C)(C)O)(c4ccccc4)OC3=O)cc2)cc1=O (stereo partly drawn) [Example 82, (S)-6-(2-Hydroxy-2-methyl-propyl)-3-((S)-1-{4-[1-(3-hydroxy-2-methyl-propyl)-2-oxo-1,2-dihydro-pyridin-4-yl]-phenyl}-ethyl)-6-phenyl-[1,3]oxazinan-2-one] | -12% | 
COC(C)(C)Cn1ccc(-c2ccc([C@H](C)N3CC[C@](CC(C)(C)O)(c4ccccc4)OC3=O)cc2)cc1=O [Example 83, (S)-6-(2-Hydroxy-2-methyl-propyl)-3-(1-{4-[1-(2-methoxy-2-methyl-propyl)-2-oxo-1,2-dihydro-pyridin-4-yl]-phenyl}-ethyl)-6-phenyl-[1,3]oxazinan-2-one] | 54% | IC50 [2]: > 50 µM
C[C@@H](c1ccc(-c2ccn(CC(C)(C)CO)c(=O)c2)cc1)N1CC[C@](CC(C)(C)O)(c2ccccc2)OC1=O [Example 90, 3-((S)-1-{4-[1-(3-Hydroxy-2,2-dimethyl-propyl)-2-oxo-1,2-dihydro-pyridin-4-yl]-phenyl}-ethyl)-(S)-6-(2-hydroxy-2-methyl-propyl)-6-phenyl-[1,3]oxazinan-2-one] | 4% | 
C[C@@H](c1ccc(-c2ccn(C)c(=O)c2)cc1)N1CC[C@](CC(C)(C)O)(c2ccccc2)OC1=O [anhydrous form of Example 48, (S)-6-(2-hydroxy-2-methylpropyl)-3-((S)-1-(4-(1-methyl-2-oxo-1,2-dihydropyridin-4-yl)phenyl)ethyl)-6-phenyl-1,3-oxazinan-2-one] |  | stability of the anhydrous state [3]: did not remain in the anhydrous state
C[C@@H](c1ccc(-c2ccn(C3CC3)c(=O)c2)cc1)N1CC[C@](CC(C)(C)O)(c2ccccc2)OC1=O [anhydrous form of Example 75, 3-{(S)-1-[4-(1-Cyclopropyl-2-oxo-1,2-dihydro-pyridin-4-yl)-phenyl]-ethyl}-(S)-6-(2-hydroxy-2-methyl-propyl)-6-phenyl-[1,3]oxazinan-2-one] |  | stability of the anhydrous state [3]: did not remain in the anhydrous state
C[C@@H](c1ccc(-c2ccn(C)c(=O)c2)cc1)N1CC[C@](CC(C)(C)O)(c2ccccc2)OC1=O [monohydrate of Example 48, (S)-6-(2-hydroxy-2-methylpropyl)-3-((S)-1-(4-(1-methyl-2-oxo-1,2-dihydropyridin-4-yl)phenyl)ethyl)-6-phenyl-1,3-oxazinan-2-one] |  | polymorphic change after slurry in water [3]: No polymorphic change was observed
C[C@@H](c1ccc(-c2ccn(C3CC3)c(=O)c2)cc1)N1CC[C@](CC(C)(C)O)(c2ccccc2)OC1=O [monohydrate of Example 75, 3-{(S)-1-[4-(1-Cyclopropyl-2-oxo-1,2-dihydro-pyridin-4-yl)-phenyl]-ethyl}-(S)-6-(2-hydroxy-2-methyl-propyl)-6-phenyl-[1,3]oxazinan-2-one] |  | polymorphic change after slurry in water [3]: No polymorphic change was observed
